Source: US20210138077A1, “SELECTIVE DRUG RELEASE FROM INTERNALIZED CONJUGATES OF BIOLOGICALLY ACTIVE COMPOUNDS” (Seagen Inc., priority 2019, published 2021)
Non-standard residues stand in square brackets, D forms with d. No end group written: not given here. Met(O) = CS(=O)CC[C@H](N)C(=O)O; Cit = NC(=O)NCCC[C@H](N)C(=O)O

Assays:
[1] = tested on: tumor tissue homogenates derived from four mouse xenograft models (HPAF-II, Ramos, SK-Mel-5, SU-DHL-4); assay: Fluorescence assay of tripeptide library: proteolysis by tumor tissue homogenate; assay type: biochemical; settings: for Normalized Tumor / Normalized Tumor Tissue: normalized fluorescence; for Normalized Tumor: averaged across 4 tumor homogenates; for Normalized Tumor Tissue: averaged across 4 tumor homogenates (HPAF-II, Ramos, SK-Mel-5, SU-DHL-4)
Protocol: (§1) Fluorescence assay. To a 384 well plate was added a mixture of tumor or normal tissue homogenate and citrate buffer (100 mM, pH 4.5; 9 μL) followed by a fluorescently labelled library compound (1 μL; dissolved in 50% MeCN). The reaction was incubated at 37° C. and fluorescence (330 nm excitation, 450 nm emission) was detected several times over a 6-hr. period. The fluorescence fold change was determined by dividing the fluorescence value at each time point with the background fluorescence when no homogenate was added.
(§2) Tissue Homogenization. Normal tissue or tumor tissue from mouse xenografts were suspended in buffer (50 mM Tris, 150 mM KCl, pH 7.0) and added to a tube containing Matrix D lysing beads (mpbio). The tissue was homogenized with a Precellys™ 24 homogenizer. The homogenized sample was centrifuged at 1000×g for 10 min and the resulting supernatant was collected then frozen at −80° C. until further use.
(§3) The library members were synthesized on cellulose support according to the method by Hilpert, K. et al. in “Peptide arrays on cellulose support: SPOT synthesis, a time and cost efficient method for synthesis of large numbers of peptides in a parallel and addressable fashion”, Nature Protocols (2007) 2(6): 1333-1349, the method of which is specifically incorporated by reference herein, with one important modification. That modification uses laser-perforated cellulose paper so that synthesis of each library member occurs with a clearly defined circular disc. After SPOT synthesis, each circular area, which separately contains a discrete library member, is punched out by a multichannel pipette into individual wells of a microtiter plate. The microtiter plate is then placed into an ammonia chamber to cleave the tripeptide containing model compounds from the cellulose discs. The cleaved compounds were then transferred to a fresh microtiter plate after solubilizing each into 50% aqueous acetonitrile. The contents of the wells were then assessed for susceptibility to proteolysis by tumor tissue homogenate in comparison to a comparator peptide-based drug linker compound having the dipeptide val-cit, which is replaced by the -[P1]-[P2]-[P3]-tripeptides in the library of drug linker compounds, by measuring the fluorescence found in each of the wells of the library after contacting with tumor or normal tissue homogenate and dividing it by the fluorescence found for tumor or normal tissue homogenate cleavage of the comparator dipeptide-containing drug linker compound.
The normalized fluorescence value for tumor homogenate proteolysis is an averaged value for tumor tissue homogenates derived from four mouse xenograft models. Calculation of those normalized values are described following Table 1A.
(§4) A normalized fluorescence value is calculated by dividing the fluorescence value at the final time point (275-315 min) from addition of a tissue homogenate by the fluorescence value when no tissue homogenate was added. That value was then normalized for each peptide in each homogenate by dividing it by the average value for that homogenate. […] The normalized tumor tissue values of Table 1 were then determined by averaging the normalized fluorescence value for each peptide across all 4 cancer homogenates that were tested. Those tumor homogenates were derived from xenograft models for HPAF-II (Nude mouse), Ramos (SCID mouse), SK-Mel-5 (Nude mouse) and SU-DHL-4 (SCID mouse). The normalized normal tissue values of Table 1 were similarly calculated using homogenized bone marrow. The Tumor/Normal ratios of Table 1A were determined by dividing the normalized tumor tissue values by the normalized normal tissue values.

[2] = tested on: normal human bone marrow homogenate; assay: Fluorescence assay of tripeptide library: proteolysis by normal tissue homogenate; assay type: biochemical; settings: for Normalized Normal: Table 1B, normalized fluorescence; for Normalized Normal Tissue: Table 1A, normalized fluorescence fold change at final time point (275-315 min), pH 4.5, 37° C.
Protocol: as §1, §2, §3
The normalized normal tissue fluorescence values are from proteolysis by normal human bone marrow. Human bone marrow was chosen as the normal tissue because it is the site of an adverse event (neutropenia) that has been associated with administering to a human subject in need thereof an effective amount of an Antibody Drug Conjugate having drug linker moieties derived from the Drug Linker compound m-val-cit-PABC-MMAE.
as §4

[3] = Table 1B, normalized tumor value divided by normalized normal value
[4] = Table 1A, normalized tumor tissue value divided by normalized normal tissue value

[dL]-Ala-Lys
Normalized Tumor ([1]; Table 1B): 1.16
Tumor/Normal [1, 3]: 1.70
Normalized Normal [2]: 0.68

Pro-Ala-Glu
Normalized Tumor Tissue ([1]; Table 1A): 2.48
Tumor/Normal [1, 4]: 3.16
Normalized Normal Tissue [2]: 0.78

Thr-Cit-Cit
Normalized Tumor Tissue ([1]; Table 1A): 2.26
Tumor/Normal [1, 4]: 2.53
Normalized Normal Tissue [2]: 0.89

[Cit]-Glu-Glu
Normalized Tumor Tissue ([1]; Table 1A): 2.44
Tumor/Normal [1, 4]: 2.53
Normalized Normal Tissue [2]: 0.97

[dL]-Glu-Lys
Normalized Tumor ([1]; Table 1B): 1.06
Tumor/Normal [1, 3]: 1.71
Normalized Normal [2]: 0.62

Pro-[Cit]-Glu
Normalized Tumor Tissue ([1]; Table 1A): 2.27
Tumor/Normal [1, 4]: 2.68
Normalized Normal Tissue [2]: 0.85

Lys-Glu-[Met(O)]
Normalized Tumor ([1]; Table 1B): 1.16
Tumor/Normal [1, 3]: 1.66
Normalized Normal [2]: 0.70

[dL]-Phe-Glu
Normalized Tumor Tissue ([1]; Table 1A): 2.27
Tumor/Normal [1, 4]: 2.55
Normalized Normal Tissue [2]: 0.89

DLeu-Leu-Cit
Normalized Tumor Tissue ([1]; Table 1A): 3.70
Tumor/Normal [1, 4]: 2.70
Normalized Normal Tissue [2]: 1.37

Pro-Lys-Glu
Normalized Tumor Tissue ([1]; Table 1A): 1.88
Tumor/Normal [1, 4]: 2.59
Normalized Normal Tissue [2]: 0.72

Pro-Glu-Glu
Normalized Tumor Tissue ([1]; Table 1A): 1.87
Tumor/Normal [1, 4]: 2.58
Normalized Normal Tissue [2]: 0.73

[dL]-Leu-Glu
Normalized Tumor Tissue ([1]; Table 1A): 3.45
Tumor/Normal [1, 4]: 3.09
Normalized Normal Tissue [2]: 1.12

Pro-Ala-[Cit]
Normalized Tumor Tissue ([1]; Table 1A): 3.03
Tumor/Normal [1, 4]: 2.84
Normalized Normal Tissue [2]: 1.07

Cit-Glu-Cit
Normalized Tumor Tissue ([1]; Table 1A): 3.16
Tumor/Normal [1, 4]: 2.61
Normalized Normal Tissue [2]: 1.21

Ala-Cit-Cit
Normalized Tumor Tissue ([1]; Table 1A): 2.58
Tumor/Normal [1, 4]: 2.53
Normalized Normal Tissue [2]: 1.02

Pro-Glu-[Cit]
Normalized Tumor Tissue ([1]; Table 1A): 2.35
Tumor/Normal [1, 4]: 2.77
Normalized Normal Tissue [2]: 0.85

[dL]-Leu-Lys
Normalized Tumor Tissue ([1]; Table 1A): 2.20
Tumor/Normal [1, 4]: 2.54
Normalized Normal Tissue [2]: 0.87

Glu-Glu-[Cit]
Normalized Tumor Tissue ([1]; Table 1A): 3.14
Tumor/Normal [1, 4]: 2.57
Normalized Normal Tissue [2]: 1.22

[dL]-Leu-[Met(O)]
Normalized Tumor Tissue ([1]; Table 1A): 1.70
Tumor/Normal [1, 4]: 2.58
Normalized Tumor ([1]; Table 1B): 1.70
Tumor/Normal [1, 3]: 2.58
Normalized Normal Tissue [2]: 0.66
Normalized Normal [2]: 0.66

Pro-Glu-Ala
Normalized Tumor ([1]; Table 1B): 1.28
Tumor/Normal [1, 3]: 1.84
Normalized Normal [2]: 0.70

[dL]-[Cit]-Glu
Normalized Tumor ([1]; Table 1B): 1.07
Tumor/Normal [1, 3]: 1.67
Normalized Normal [2]: 0.64

Cit-Cit-Cit
Normalized Tumor Tissue ([1]; Table 1A): 2.82
Tumor/Normal [1, 4]: 2.52
Normalized Normal Tissue [2]: 1.12

Pro-Cit-Cit
Normalized Tumor Tissue ([1]; Table 1A): 2.54
Tumor/Normal [1, 4]: 2.67
Normalized Normal Tissue [2]: 0.95

Pro-Glu-Lys
Normalized Tumor Tissue ([1]; Table 1A): 1.85
Tumor/Normal [1, 4]: 2.57
Normalized Normal Tissue [2]: 0.72

Glu-Ala-Glu
Normalized Tumor Tissue ([1]; Table 1A): 2.66
Tumor/Normal [1, 4]: 2.53
Normalized Normal Tissue [2]: 1.05
